Results reported in patent US20170173052A1, “METHODS OF TREATING OVARIAN CANCER” (Cipla Limited, priority 2015, published 2017).
Like-named read-outs stand apart in the source and are kept apart here.

Key:
IGR-OV1 [1] = assay: In vitro cytotoxicity 3D clonogenic assay; type: cell-based, human; settings: based on relative IC50
Protocol: (§1) In the present study methacycline and the reference compound paclitaxel were investigated for anticancer activity ex vivo in eight human tumor cell lines of ovarian cancer. Tests were carried out using a 3D clonogenic assay in 96-well format with image based read-out. The aim of the study was to investigate antitumor potency and tumor type selectivity of the compound. Cell lines were routinely passaged one or twice weekly. All cells were grown at 37° C. in a humidified atmosphere with 5% CO2 in RPMI 1640 medium (Biochrom) supplemented with 10% (v/v) fetal calf serum and 0.1 mg/mL gentamicin. The percentage of viable cells was determined in a Neubauer-hemocytometer using trypan blue exclusion.
(§2) The clonogenic assay was carried out in a 96 well plate format using ultra low attachment plates. For each test, cells were prepared as described above and assay plates were prepared as follows: each test well contained a layer of semi-solid medium with tumor cells (50 μL), and a second layer of medium supernatant with or without test compound (100 μL). The cell layer consisted of 2·10^3 to 3·10^3 tumor cells per well, which were seeded in 50 μL/well cell culture medium (IMDM, supplemented with 20% (v/v) fetal calf serum, 0.01% (w/v) gentamicin, and 0.4% (w/v) agar. After 24 hours the test compounds were added after serial dilution in cell culture medium, and left on the cells for the duration of the experiment (continuous exposure, 100 μl drug overlay). Test concentrations ranged from 0.01 μM to 316.2 μM (methacycline), and 0.000095 μM to 3 (paclitaxel). Every plate included six untreated control wells and drug-treated groups in duplicate at 9 concentrations. Cultures were incubated at 37° C. and 7.5% CO2 in a humidified atmosphere for 8 to 13 days and monitored closely for colony growth using an inverted microscope. Within this period, ex vivo tumor growth led to the formation of colonies with a diameter of >50 μm. At the time of maximum colony formation, counts were performed with an automatic image analysis system (Bioreader 5000-Wa Biosys GmbH). 48 hours prior to evaluation, vital colonies were stained with a sterile aqueous solution of 2-(4-iodophenyl)-3-(4-nitrophenyl)-5-phenyltetrazolium chloride (1 mg/ml, 100 μl/well)

OVCAR3 = assay: In vitro cytotoxicity 3D clonogenic assay; type: cell-based, human; settings: based on relative IC50 (individual IC50 <1/2 mean IC50)
Protocol: as §1, §2

OVCAR-5 [2] = assay: In vitro cytotoxicity 3D clonogenic assay; type: cell-based, human; settings: based on relative IC50
Protocol: as §1, §2

OVXF SK-OV-3 = assay: In vitro combination study, 2D monolayer CellTiter-Blue, 5x5 matrix; type: cell-based; settings: Homo sapiens, 96 h, single agent, four days, read-out: IC50, tumor cell viability, single agent
Protocol: (§3) The objective of this study was to assess anti-tumor efficacy of methacycline in combination with paclitaxel in a 5×5 matrix combination format against various ovarian cancer cell lines. The compounds were tested in ovarian cell lines, namely OVXF A2780 and OVXF SK-OV-3, obtained from National Cancer Institute (Bethesda, Md., USA). OVXF SKOV-3 cells were obtained from American Type Culture Collection (Rockville, Md., USA). Authenticity of cell lines was confirmed at the DSMZ by STR analysis. Cell lines were routinely passaged once or twice weekly and maintained in culture for up to 20 passages. Cells were grown at 37° C. in a humidified atmosphere with 5% CO2 in RPMI 1640 medium (25 mM HEPES, with L-glutamine, Biochrom) supplemented with 10% (v/v) fetal calf serum and 0.1 mg/mL gentamicin. The percentage of viable cells was determined in a Neubauer-hemocytometer using trypan blue exclusion.
The CellTiter-Blue® Cell Viability Assay (#G8081, Promega) was used according to manufacturer's instructions. Briefly, cells were harvested from exponential phase cultures, counted and plated in 96-well flat-bottom microtiter plates at a cell density of 4,000-8,000 cells/well depending on the cell line's growth rate. […] Following an incubation period of up to four hours, fluorescence (FU) was measured by using the Enspire Multimode Plate Reader (excitation λ=531 nm, emission λ=615 nm). […]

[3] = tested on: eight selected human ovarian cancer cell lines; assay: In vitro cytotoxicity 2D assay (CellTiter-Blue cell viability), panel mean; type: cell-based; settings: for IC50: 96 h treatment, mean over eight ovarian cancer cell lines, read-out: geometric mean absolute IC50 value
Text: (§4) In the present study the human ovarian cancer cell lines OVXF 899, OVXF 1023, A2780, SK-OV-3, OVCAR-3, IGR-OV1, OVCAR-5 and NCI/ADR-RES were used. OVXF 899 and OVXF 1023 were established at Oncotest, Germany from the corresponding human patient derived xenograft. A2780, IGR-OV1, NCl/ADR-RES, OVCAR-3 and OVCAR-5 were kindly provided by the NCI (National Cancer Institute, Bethesda, Md., USA). SK-OV-3 was purchased from ATCC (Rockville, Md., USA). Authenticity of cell lines was confirmed at the DSMZ by STR (short tandem repeat) analysis, a PCR based DNA-fingerprinting methodology. Cell lines were routinely passaged once or twice weekly and maintained in culture for up to 20 passages. All cells were grown at 37° C. in a humidified atmosphere with 5% CO2 in RPMI 1640 medium (25 mM HEPES, with L-glutamine, #FG1385, Biochrom, Berlin, Germany) supplemented with 10% (v/v) fetal calf serum (Sigma, Taufkirchen, Germany) and 0.1 mg/mL gentamicin (Life Technologies, Karlsruhe, Germany).
(§5) The CellTiter-Blue® Cell Viability Assay (#G8081, Promega) was used according to manufacturer's instructions. Briefly, cells were harvested from exponential phase cultures, […] on the cell line's growth rate. After a 24 h recovery period to allow the cells to resume exponential growth, test compounds were added.
(§6) Following an incubation period of up to four hours, fluorescence (FU) was measured by using the Enspire Multimode Plate Reader (excitation λ=531 nm, emission λ=615 nm). For calculations, the mean values of duplicate/six fold (untreated control) data were used. Sigmoidal concentration-response curves were fitted to the data points (T/C values) obtained for each cell line using 4 parameter non-linear curve fit (Oncotest Warehouse Software).
The in vitro anti-tumor activity of methacycline in eight selected human ovarian cancer cell lines were evaluated. […] Anti-tumor activity was assessed by using the CellTiter-Blue® Cell Viability Assay. Potency is expressed as absolute IC50 and relative IC50 values, calculated by non-linear regression analysis. […]

[4] = tested on: eight human tumor cell lines of ovarian cancer; assay: In vitro cytotoxicity 3D clonogenic assay, panel; type: cell-based; settings: for IC50: Homo sapiens, continuous exposure 8 to 13 days
Protocol: as §1
as §2, with “48 hours prior to evaluation, vital colonies were stained with a sterile aqueous solution of 2-(4-iodophenyl)-3-(4-nitrophenyl)-5-phenyltetrazolium chloride (1 mg/ml, 100 μl/well)” left out

OVXF IGR-OV1 = assay: In vitro combination study, 2D monolayer CellTiter-Blue, 5x5 matrix; type: cell-based, human; settings: single agent, four days, read-out: IC50, tumor cell viability, single agent
Protocol: as §3
(§7) The CellTiter-Blue® Cell Viability Assay (#G8081, Promega) was used according to manufacturer's instructions. Briefly, cells were harvested from exponential phase cultures, counted and plated in 96-well flat-bottom microtiter plates at a cell density of 4,000-8,000 cells/well depending on the cell line's growth rate. After a 24 h recovery period to allow the cells to resume exponential growth, 10 μL of culture medium (twelve control wells/plate) or of culture medium with test compound were added, and treatment continued for four days. After four days treatment of cells, 20 μl/well CellTiter-Blue® reagent was added. Following an incubation period of up to four hours, fluorescence (FU) was measured by using the Enspire Multimode Plate Reader (excitation λ=531 nm, emission λ=615 nm). […]
(§8) In the present study, methacycline was tested alone and in combination with paclitaxel in order to investigate the ability to inhibit tumor cell growth of ovarian cancer cell lines in a 5×5 matrix combination format. Efficacy of methacycline combined with paclitaxel was assessed by measuring tumor cell viability using a 2D monolayer assay in cell lines OVXF A2780, OVXF IGR-OV1, OVXF SK-OV-3.

SK-OV-3 [5] = assay: In vitro cytotoxicity 3D clonogenic assay; type: cell-based, human; settings: based on relative IC50 (individual IC50 <1/2 mean IC50)
Protocol: as §1, §2

NCI-ADR-RES = assay: In vitro cytotoxicity 3D clonogenic assay; type: cell-based, human
Protocol: as §1, §2

A2780 [6] = assay: In vitro cytotoxicity 3D clonogenic assay; type: cell-based, human; settings: based on relative IC50 (individual IC50 <1/2 mean IC50)
Protocol: as §1, §2

OVXF 899L = assay: In vitro cytotoxicity 3D clonogenic assay; type: cell-based, human
Protocol: as §1, §2

OVXF 1023L = assay: In vitro cytotoxicity 3D clonogenic assay; type: cell-based, human
Protocol: as §1, §2

[7] = tested on: ovarian cancer cell lines A2780, OVCAR3, OVCAR-5, and SK-OV-3; assay: In vitro cytotoxicity 3D clonogenic assay, responding lines; type: cell-based, human; settings: range over A2780, OVCAR3, OVCAR-5, SK-OV-3, read-out: IC50 values, inhibition of colony formation
Protocol: as §1
The clonogenic assay was carried out in a 96 well plate format using ultra low attachment plates. For each test, cells were prepared as described above and assay plates were prepared as follows: each test well contained a layer of semi-solid medium with tumor cells (50 μL), and a second layer of medium supernatant with or without test compound (100 μL). […] Cultures were incubated at 37° C. and 7.5% CO2 in a humidified atmosphere for 8 to 13 days and monitored closely for colony growth using an inverted microscope. […]

OVXF A2780 = assay: In vitro combination study, 2D monolayer CellTiter-Blue, 5x5 matrix; type: cell-based, human; settings: single agent, four days, read-out: IC50, tumor cell viability, single agent
Protocol: as §3, §7, §8

SK-OV-3 [8] = assay: In vitro cytotoxicity 2D assay (CellTiter-Blue cell viability); type: cell-based, human; settings: 96 h treatment, read-out: absolute IC50
Text: as §4, §5, §6
(§9) The in vitro anti-tumor activity of methacycline in eight selected human ovarian cancer cell lines were evaluated. The test compounds was applied at 10 concentrations in half-log increments up to 300 μM. As a reference compound paclitaxel was tested in parallel. Cells were treated for 96 h with the test compounds. Anti-tumor activity was assessed by using the CellTiter-Blue® Cell Viability Assay. Potency is expressed as absolute IC50 and relative IC50 values, calculated by non-linear regression analysis. Results are depicted in FIGS. 1-4.

IGR-OV1 [9] = assay: as above; type: cell-based, human; settings: 96 h treatment, read-out: absolute IC50
Text: as §4, §5, §6, §9

A2780 [10] = assay: as above; type: cell-based, human; settings: 96 h treatment, read-out: absolute IC50
Text: as §4, §5, §6, §9

OVCAR-3 = assay: as above; type: cell-based, human; settings: 96 h treatment, read-out: absolute IC50
Text: as §4, §5, §6, §9

OVCAR-5 [11] = assay: as above; type: cell-based, human; settings: 96 h treatment, read-out: absolute IC50
Text: as §4, §5, §6, §9

NCI/ADR-RES = assay: as above; type: cell-based, human; settings: 96 h treatment, read-out: absolute IC50
Text: as §4, §5, §6, §9

`CC(=O)O[C@H]1C(=O)[C@@]2(C)[C@H]([C@H](OC(=O)c3ccccc3)[C@]3(O)C[C@H](OC(=O)[C@H](O)[C@@H](NC(=O)c4ccccc4)c4ccccc4)C(C)=C1C3(C)C)[C@]1(OC(C)=O)CO[C@@H]1C[C@@H]2O` [paclitaxel] was tested, and the “activity against colony formation” value (IGR-OV1 [1]) was “above average activity”, the “activity against colony formation” value (OVCAR3) was “above average activity” and the “activity against colony formation” value (OVCAR-5 [2]) was “above average activity”. For the same compound, the IC50 (OVXF SK-OV-3) was 0.009 µM, the IC50 ([3]; Homo sapiens) was 0.045 µM and the IC50 ([4]; read-out: mean absolute IC50 value, colony formation) was 0.077 µM. The IC50 ([4]; read-out: mean relative IC50 value, colony formation) was 0.012 µM, the “bottom plateaus of the concentration-effect curves of responding tumor models” value ([4]; responding tumor models) was 0% to 60 and the IC50 (OVXF IGR-OV1; Homo sapiens, IGROV-1, 96 h) was 0.003 µM.
In the case of methacycline, the “activity against colony formation” value (SK-OV-3 [5]) is reported as “above average activity”, the “activity against colony formation” value (IGR-OV1 [1]) is reported as “No activity” and the “activity against colony formation” value (NCI-ADR-RES) is reported as “No activity”. For the same compound, the “activity against colony formation” value (A2780 [6]) was “above average activity”, the “activity against colony formation” value (OVXF 899L) was “No activity” and the “activity against colony formation” value (OVCAR3) was “above average activity”. The “activity against colony formation” value (OVXF 1023L) was “No activity”, the IC50 [7] was 54.1 to 71.1 µM and the IC50 [3] was 27.2 µM. For the same compound, the “difference between the most sensitive and most resistant cell line” value ([3]; IGR-OV1 vs NCI/ADR-RES IC50) was 13 fold, the IC50 (OVXF IGR-OV1) was 43.3 µM and the IC50 (OVXF A2780) was 34.6 µM. It also gave an IC50 (SK-OV-3 [8]) of 18.6 µM, an IC50 (IGR-OV1 [9]) of 7.92 µM and an IC50 (A2780 [10]) of 22.7 µM. It also gave an IC50 (OVCAR-3) of 17.5 µM, an IC50 (OVCAR-5 [11]) of 14.5 µM and an IC50 (NCI/ADR-RES) of 104 µM.
